For `O=C1c2ccccc2C(=O)N1CCCSc1nccc(NC(=S)NCC(F)(F)F)n1`, the melting point fell in the range of 214 to 215 °C. Under `O=S(=O)(CCO)c1ccc(S(=O)(=O)CCO)cc1` stands 209 to 212 °C; under `O=C(O)CCc1cn(Cc2ccc(OCc3cccnc3)cc2)nc1-c1ccccc1`, 112 to 113 °C. For `CCON=C(CC)C1=C(O)CC(c2c(C)c3c(c(C)c2Cl)CC(C)(CC)C3)CC1=O` (stereo not given) the value was 56 to 58 °C; for `Cc1cc2nc(Cl)sc2cc1C`, 175 °C.

In turn, `CN(C)c1ccc(/C=C/c2cc(/C=C/c3ccc4cc[nH]c4c3)[nH]n2)cc1` gave a melting point of 224 to 227 °C. Under `O=C1c2cc([N+](=O)[O-])ccc2OCCN1CCO` stands 151 °C. Under `O=C(N[C@H]1CC[C@H](CCN2CCN(c3nccc4c3CCO4)CC2)CC1)c1ccc(-c2cccnc2)cc1` stands 218 °C; under `Cc1nc2c([nH]1)C(=O)N1CCN=C1N2Cc1ccc(Cl)cc1`, 312 to 314 °C. Under `COC(=O)/C=C/c1ccc(NC(=O)CCCBr)nc1` stands 156 to 173 °C. `CCOC(=O)c1c(C(F)(F)F)nc(C(F)(F)F)c(C)c1OC(C)=O` returned a melting point of 49 to 51 °C. For `O=C1NCC(c2ccccc2)SCC1N1C(=O)c2ccccc2C1=O` (stereo not given) the value was 240 to 247 °C; for `Cn1c(=O)nc(-c2ccccc2Cl)c2ccsc21`, 225 to 226 °C. `O=C(O)c1ccc(NCC=C(c2ccc(Cl)cc2)c2ccc(Cl)cc2)cc1` showed a melting point of 231 to 235 °C. Compound `CCC(CC)N(Cc1ccc(C(=O)OC)cc1)S(=O)(=O)c1ccc(Cl)cc1` yielded a melting point of 95 to 97 °C. Under `CN1CCCC1CNC(=O)c1ccc(S(=O)(=O)N(C)C)c2c1OCCO2` (stereo not given) stands 165 to 166 °C; under `COC(=O)c1cc(N)n(C)n1`, 101 to 102 °C. `Cc1oc(-c2ccccc2)nc1COc1ccc(CCC2SC(=O)NC2=O)cc1` (stereo not given) returned a melting point of 146 to 147 °C. Under `CCOC(=O)c1nc(C)n2c1CN=C(c1ccccc1Cl)c1cc(Cl)ccc1-2` stands 214 to 215 °C; under `CCN(CC)c1nc(Cl)nc2c(Cl)ncnc12`, 113 to 114 °C; under `COc1cc(NC2CCCC2)n2nc(-c3ccc(F)cc3)c(-c3ccnc(NC4CCCC4)n3)c2c1`, 167 to 169 °C. Compound `CCCCN(CCCC)C(=O)c1c(C)n(CCc2ccccc2)c2cc(C(=O)CC)c(O)c(CN3CCCCC3)c12` yielded a melting point of 111 to 112 °C. Under `CCCCCCCCCCOCc1ccc(CO)cc1` stands 20 to 31 °C; under `CC1(c2ccc(CNC(=O)CCl)cc2)Cc2cc(OCC(=O)O)c(Cl)c(Cl)c2C1=O` (stereo not given), 138 to 141 °C; under `Clc1ccc(-c2ccc(Cl)nc2)cc1`, 113 to 115 °C. Compound `COc1cc(N)c(Cl)cc1C(=O)N[C@H]1CCN(CCCNc2nc3ccccc3s2)C[C@H]1OC` (relative stereo) returned a melting point of 162 °C. As for `OC1(C(Br)Br)O[C@H](COCc2ccccc2)[C@@H](OCc2ccccc2)[C@H](OCc2ccccc2)[C@H]1OCc1ccccc1` (stereo not given in full), the melting point was 77 to 78 °C. Under `COc1cc2c(cc1OC)CCN(CCCN(C)C1CCc3cc(OC)c(OC)cc3C1)C=C2` (stereo not given) stands 115 to 116 °C. Under `NC(c1ccc2ccccc2c1)P(O)O` (stereo not given) stands 237 to 239 °C; under `CC(C)(c1ccccc1)c1ccc(N)c(S(=O)(=O)O)c1`, 263 to 265 °C; under `c1cc(Nc2csc3cnccc23)ccn1`, 236 to 238 °C. For `CN1Cc2c(-c3noc(CCl)n3)ncn2-c2ccc(Cl)cc2C1=O`, the melting point worked out at 229 °C. Under `O=C1NCC(Cc2ccccc2O)O1` (stereo not given) stands 93 to 95 °C. Under `CCCCc1ncc(/C=C(\Cc2ccc(OC)cc2)c2nnn[nH]2)n1Cc1ccccc1Cl` stands 168 to 171 °C; under `COc1cc([N+](=O)[O-])c(C(=O)Cc2ccccc2)cc1O`, 142 to 143 °C.

Broadly, the melting point is the temperature of the solid-liquid transition.
